Values joined by “and” are separate entries in the source; they are usually repeats but may differ in a detail not shown here. Equal entries are not always repeated. Toxic doses and inconclusive results are not listed.

The test deals with BDF1 mice, P388 leukemia ip, median survival T/C. Briefly: NCI In Vivo Anticancer Drug Screen. Data for tumor model P388 Leukemia (intraperitoneal) in B6D2F1 (BDF1) mice. The following applies: endpoint: median survival time, higher = longer survival. The gist of the method: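 Each value expresses how treatment altered survival: treated-mouse outcome over vehicle-mouse outcome, both groups bearing the transplanted tumour.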

Where [1] appears, read: dose: 25.0 mg/kg/injection, schedule: Q01DX009 (ip), vehicle: saline.
The mark [2] stands for this setting: dose: 50.0 mg/kg/injection, schedule: Q01DX009 (ip), vehicle: saline.
Setting [3] is: dose: 50.0 mg/kg/injection, schedule: Q04DX003 (ip), vehicle: saline.
[4] abbreviates: dose: 100.0 mg/kg/injection, schedule: Q04DX003 (ip), vehicle: saline.
[5] abbreviates: dose: 6.25 mg/kg/injection, schedule: Q01DX009 (ip), vehicle: saline.
[6] abbreviates: dose: 12.5 mg/kg/injection, schedule: Q01DX009 (ip), vehicle: saline.
[7] abbreviates: dose: 100.0 mg/kg/injection, schedule: Q01DX009 (ip), vehicle: saline with Tween-80.
Setting [8] is: dose: 200.0 mg/kg/injection, schedule: Q01DX009 (ip), vehicle: saline with Tween-80.
The mark [9] stands for this setting: dose: 400.0 mg/kg/injection, schedule: Q01DX009 (ip), vehicle: saline with Tween-80.
The mark [10] stands for this setting: dose: 100.0 mg/kg/injection, schedule: Q04DX003 (ip), vehicle: saline with Tween-80.
Where [11] appears, read: dose: 200.0 mg/kg/injection, schedule: Q04DX003 (ip), vehicle: saline with Tween-80.
Where [12] appears, read: dose: 400.0 mg/kg/injection, schedule: Q04DX003 (ip), vehicle: saline with Tween-80.
The mark [13] stands for this setting: dose: 12.5 mg/kg/injection, schedule: Q01DX009 (ip), vehicle: saline with Tween-80.
Where [14] appears, read: dose: 50.0 mg/kg/injection, schedule: Q04DX003 (ip), vehicle: saline with Tween-80.

On to `O=[N+]([O-])c1ccc(N2CCN(Cc3ccccc3)CC2)c2c1no[n+]2[O-]`, for which the T/C reads like this: (dose: 75.0 mg/kg/injection, schedule: Q04DX003 (ip), vehicle: saline with Tween-80) 101 % of control; (dose: 300.0 mg/kg/injection, schedule: Q04DX003 (ip), vehicle: saline with Tween-80) 121 % of control.
Turning to `CC[C@@]1(O)C[C@H](OC2CC(N(C)C)C(O)C(C)O2)c2c(O)c3c(c(O)c2[C@H]1OC1CC(N(C)C)C(O)C(C)O1)C(=O)c1cccc(O)c1C3=O` (some centres not stated), the T/C (dose: 0.25 mg/kg/injection, schedule: Q01DX010 (ip), vehicle: saline) is 100 % of control.
Regarding `Cc1ccc(NC(=S)NC(=O)c2ccco2)cc1Cl`, the T/C (dose: 100.0 mg/kg/injection, schedule: Q04DX003 (ip), vehicle: Klucel (hydroxypropylcellulose) (HPC)) is 100 % of control; the T/C (dose: 200.0 mg/kg/injection, schedule: Q04DX003 (ip), vehicle: Klucel (hydroxypropylcellulose) (HPC)) was 120 % of control; the T/C (dose: 400.0 mg/kg/injection, schedule: Q04DX003 (ip), vehicle: Klucel (hydroxypropylcellulose) (HPC)) is 90 % of control.
For the molecule `CCn1c(O)c(C=N)c(=O)n(CC)c1=O`, the T/C by setting is: under setting [1], 100 % of control; (dose: 25.0 mg/kg/injection, schedule: Q04DX003 (ip), vehicle: saline) 96 % of control; under setting [2], 104 % of control; under setting [3], 100 % of control; under setting [4], 103 % of control.
Consider `COc1cc2c(cc1OC)C1=C(CC2)C2CCCN2CC1` (configuration not stated), for which the T/C is 95 % of control under setting [5], 105 % of control under setting [6] and 95 % of control under setting [1].
As to `CCOC(=O)c1c[nH]n2c(=S)ncnc12`, the T/C reads like this: under setting [7], 100 % of control and 109 % of control; under setting [8], 110 % of control; under setting [9], 104 % of control.
Regarding `O=C(Nc1ccc([N+](=O)[O-])cc1)Nc1ccc([N+](=O)[O-])c(C(F)(F)F)c1`, the T/C reads like this: under setting [7], 87 % of control; (dose: 110.0 mg/kg/injection, schedule: Q01DX009 (ip), vehicle: Klucel (hydroxypropylcellulose) (HPC)) 105 % of control and 117 % of control; (dose: 170.0 mg/kg/injection, schedule: Q01DX009 (ip), vehicle: Klucel (hydroxypropylcellulose) (HPC)) 121 % of control; under setting [8], 95 % of control; (dose: 225.0 mg/kg/injection, schedule: Q01DX009 (ip), vehicle: Klucel (hydroxypropylcellulose) (HPC)) 105 % of control; under setting [9], 100 % of control.
Take `COc1cccc2c1C(=O)c1c(O)c3c(c(O)c1C2=O)C[C@@](O)(C(C)=O)C[C@@H]3OC1CC(NC=O)C(O)C(C)O1` (some centres not stated): the T/C (dose: 0.25 mg/kg/injection, schedule: Q01DX009 (ip), vehicle: water) was 108 % of control and 110 % of control; the T/C (dose: 0.5 mg/kg/injection, schedule: Q01DX009 (ip), vehicle: water) is 110 % of control and 117 % of control; the T/C (dose: 1.0 mg/kg/injection, schedule: Q01DX009 (ip), vehicle: water) is 107 % of control; the T/C (dose: 2.0 mg/kg/injection, schedule: Q01DX009 (ip), vehicle: water) is 186 % of control; the T/C (dose: 4.0 mg/kg/injection, schedule: Q01DX009 (ip), vehicle: water) was 205 % of control; the T/C (dose: 8.0 mg/kg/injection, schedule: Q01DX009 (ip), vehicle: water) was 169 % of control.
On to `O=C(CSc1cc(-c2ccc(Cl)cc2)s[s+]1)c1ccc(Cl)cc1`, for which the T/C under setting [6] was 109 % of control; the T/C under setting [1] is 89 % of control; the T/C under setting [2] was 89 % of control; the T/C under setting [3] is 97 % of control; the T/C (dose: 100.0 mg/kg/injection, schedule: Q01DX009 (ip), vehicle: saline) is 101 % of control; the T/C under setting [4] is 90 % of control and 100 % of control and 105 % of control. The T/C by setting is: (dose: 200.0 mg/kg/injection, schedule: Q01DX009 (ip), vehicle: saline) 107 % of control; (dose: 200.0 mg/kg/injection, schedule: Q04DX003 (ip), vehicle: saline) 97 % of control and 111 % of control; (dose: 300.0 mg/kg/injection, schedule: Q04DX003 (ip), vehicle: saline) 111 % of control; (dose: 400.0 mg/kg/injection, schedule: Q04DX003 (ip), vehicle: saline) 103 % of control.
In the case of `Nc1nc(N)c2cc(CNc3ccc(C(=O)NC(CC(=O)O)CC(=O)O)cc3)ccc2n1`, the T/C (dose: 132.0 mg/kg/injection, schedule: Q01DX009 (ip), vehicle: saline with Tween-80) was 90 % of control.
Regarding `Cc1cccc(Cl)c1NC(=O)CCCl`, the T/C runs as follows: under setting [10], 90 % of control; under setting [11], 90 % of control; under setting [12], 109 % of control.
As to `Cc1cc(-c2ccc(Cl)cc2)[n+](C)n1C`, the T/C under setting [13] is 100 % of control and the T/C (dose: 25.0 mg/kg/injection, schedule: Q01DX009 (ip), vehicle: saline with Tween-80) was 111 % of control.
For `CC(=O)Nc1ccc(/C=C/C(=O)c2ccc(Cl)cc2)cc1`, the T/C was 100 % of control under setting [7]; 104 % of control under setting [10]; 100 % of control under setting [8]; 100 % of control under setting [11]; 100 % of control under setting [9]; 90 % of control under setting [12].
Turning to `CC(C)c1ncc(CCCN=C(N)N)[nH]c1=O`, the T/C (dose: 37.5 mg/kg/injection, schedule: Q01DX009 (ip), vehicle: saline) was 98 % of control; the T/C (dose: 75.0 mg/kg/injection, schedule: Q01DX009 (ip), vehicle: saline) was 94 % of control; the T/C (dose: 150.0 mg/kg/injection, schedule: Q01DX009 (ip), vehicle: saline) was 90 % of control.
As to `c1ccc2c(SSc3cccc4ccccc34)cccc2c1`, the T/C is 108 % of control (dose: 25.0 mg/kg/injection, schedule: Q04DX003 (ip), vehicle: saline with Tween-80); 108 % of control under setting [14]; 112 % of control under setting [10]; 103 % of control under setting [11].
Regarding `CCCNC(=O)Oc1c(C(C)C)ccc(C)c1Cl`, the T/C is 100 % of control under setting [10], 90 % of control under setting [11] and 104 % of control under setting [12].
As for `CCCC#CC#N`, the T/C by setting is: (dose: 25.0 mg/kg/injection, schedule: Q01DX009 (ip), vehicle: olive oil, sesame oil, peanut oil) 104 % of control; (dose: 50.0 mg/kg/injection, schedule: Q01DX009 (ip), vehicle: olive oil, sesame oil, peanut oil) 91 % of control.
As for `CCC(=O)/C=C/C1=C(C)CCCC1(C)C`, the T/C was 104 % of control under setting [14], 104 % of control under setting [10] and 95 % of control under setting [11].
Take `C1CC[N-]CC1.C1CC[N-]CC1.C1CC[N-]CC1.C1CC[N-]CC1.[Pt+4]`: the T/C by setting is: under setting [5], 110 % of control; under setting [6], 100 % of control.
Regarding `CC[n+]1c(-c2ccccc2)c2cc(N)ccc2c2ccc(N)cc21`, the T/C runs as follows: (dose: 1.56 mg/kg/injection, schedule: Q01DX009 (ip), vehicle: saline) 151 % of control; (dose: 3.13 mg/kg/injection, schedule: Q01DX009 (ip), vehicle: saline) 178 % of control; (dose: 5.0 mg/kg/injection, schedule: Q01DX010 (ip), vehicle: saline) 155 % of control; (dose: 5.3 mg/kg/injection, schedule: Q01DX009 (ip), vehicle: saline) 208 % of control; under setting [5], 163 % of control; (dose: 6.25 mg/kg/injection, schedule: Q01DX009 (ip), vehicle: water) 163 % of control. Moreover, the T/C by setting is: (dose: 8.0 mg/kg/injection, schedule: Q01DX009 (ip), vehicle: saline) 198 % of control and 222 % of control; (dose: 12.0 mg/kg/injection, schedule: Q01DX009 (ip), vehicle: saline) 227 % of control and 196 % of control; under setting [13], 113 % of control; (dose: 12.5 mg/kg/injection, schedule: Q01DX009 (ip), vehicle: water) 113 % of control; (dose: 20.0 mg/kg/injection, schedule: Q01DX010 (ip), vehicle: saline) 114 % of control and 120 % of control; (dose: 27.0 mg/kg/injection, schedule: Q01DX009 (ip), vehicle: saline) 97 % of control.
As to `CCCc1cc(CCC)n2nc(N)nc2n1`, the T/C is 109 % of control (dose: 50.0 mg/kg/injection, schedule: Q01DX009 (ip), vehicle: saline with Tween-80) and 100 % of control under setting [7].

The record behind these values is PubChem BioAssay AID328 (DTP/NCI, 2004).
